The NIST ThermoML archive (doi:10.1016/j.jct.2011.01.014)

Experiment: xn = mol fraction of the nth substance listed
Details: 101 kPa, Liquid; for mass density: Vibrating tube method; for speed of sound: sound velocity cell

CC(=O)[O-].[NH3+]CCO [2-hydroxyethylammonium acetate] + CCO
Details | mass density, 288.15 K [kg/m3] | mass density, 290.65 K [kg/m3] | mass density, 293.15 K [kg/m3] | mass density, 295.65 K [kg/m3] | speed of sound, 288.15 K [m/s] | speed of sound, 290.65 K [m/s] | speed of sound, 293.15 K [m/s] | speed of sound, 295.65 K [m/s]
x1 = 0.0497 | 830.092 | 828.024 | 825.955 | 823.881 | 1219.7 | 1211.3 | 1203 | 1194.7
x1 = 0.101 | 862.917 | 860.918 | 858.918 | 856.913 | 1257.7 | 1249.6 | 1241.5 | 1233.5
x1 = 0.201 | 917.271 | 915.381 | 913.49 | 911.596 | 1327 | 1319.3 | 1311.7 | 1304
x1 = 0.3009 | 964.134 | 962.336 | 960.535 | 958.737 | 1410 | 1402.9 | 1395.7 | 1388.5
x1 = 0.4057 | 1005.85 | 1004.14 | 1002.43 | 1000.73 | 1470.2 | 1463.2 | 1456.2 | 1449.2
x1 = 0.4946 | 1036.29 | 1034.64 | 1033 | 1031.36 | 1529.9 | 1523 | 1516.3 | 1509.6
x1 = 0.603 | 1068.79 | 1067.23 | 1065.67 | 1064.1 | 1601.6 | 1594.9 | 1588.4 | –
x1 = 0.6765 | 1088.47 | 1086.9 | 1085.33 | 1083.81 | 1646.3 | 1639.6 | 1633.2 | –
x1 = 0.7918 | 1116.27 | 1114.76 | 1113.26 | 1111.76 | 1707.9 | 1700.5 | 1693.3 | –
x1 = 0.8825 | 1135.66 | 1134.02 | 1132.52 | 1131.06 | 1756.7 | 1749.4 | 1741.7 | –
x1 = 0.9539 | 1148.76 | 1147.23 | 1145.67 | 1144.09 | 1806.7 | 1796 | 1786.6 | –
x1 = 1 | 1154.7 | 1153.28 | 1151.87 | 1150.45 | 1817.2 | 1810 | 1803.2 | –
